Values joined by “and” are separate entries in the source; they are usually repeats but may differ in a detail not shown here. Equal entries are not always repeated. Marks after values point to notes of the source that are not given here.
What was measured:
[1] = In vitro release of BP or HM from PLGA 50:50 rods; type: physicochemical; settings: BP rods of first batch
[2] = system: rats with sciatic nerve ligation; experiment: Paw withdrawal threshold after sciatic nerve ligation, rods placed parallel to the nerve; type: in vivo, Sprague-Dawley rats
rats [3] = experiment: Tail flick test after intrathecal implantation of PLGA rods; type: in vivo; settings: for % MPE, tail flick test, Average: average of 6 rats
rats [4] = experiment: Paw withdrawal test after intrathecal implantation of PLGA rods; type: in vivo; settings: for % MPE, paw withdrawal test, Average: average of 6 rats
[5] = Drug release studies of PLGA 85:15 rods (Example 2); type: physicochemical
rats [6] = experiment: Anesthesia after intrathecal polymeric implants, all sites tested (Example 2); type: in vivo; settings: intrathecal rods
[7] = rat
[8] = trapezoidal method, individual rats, listed as BP
[9] = trapezoidal method, mean of 6 rats

CCCCN1CCCCC1C(=O)Nc1c(C)cccc1C (stereo not shown) [Bupivacaine, bupivacaine]
in vitro release behavior [1]: zero order release pattern with two different rates
analgesia, paw withdrawal threshold (difference score) ([2]; dose doubled (4 rods/rat)): possible to achieve the analgesic effect
analgesia, paw withdrawal threshold (difference score) ([2]; first part, single dose (2 rods/rat)): insufficient to provide analgesia
% MPE, tail flick test, Average (rats [3]; 2h): 40.52 % MPE
% MPE, tail flick test (rats [3]; 2h after intrathecal implantation of PLGA rod, individual rats): 31.19 % MPE and 41.43 % MPE and 63.08 % MPE and 30.89 % MPE and 23.85 % MPE and 52.69 % MPE
% MPE, tail flick test, Average (rats [3]; 4h): 39.06 % MPE
% MPE, tail flick test (rats [3]; 4h, individual rats): 24.2268 % MPE and 38.87 % MPE and 40.26 % MPE and 44.7644 % MPE and 11.79 % MPE and 74.46 % MPE
Area under the curve (AUC), tail flick test (rats [3]; % MPE versus time in days, trapezoidal method, individual rats, listed as BP): 130.77 and 82.59 and 112.23 and 137.33 and 90.32 and 72.88
Area under the curve (AUC), tail flick test, Mean (rats [3]; % MPE versus time in days, trapezoidal method, mean of 6 rats): 104.35 * #
% MPE, tail flick test, Average (rats [3]; D1): 23.1672 % MPE
% MPE, tail flick test (rats [3]; D1, individual rats): 14.95 % MPE and 27.11 % MPE and 31.79 % MPE and 25.65 % MPE and 11.54 % MPE and 27.96 % MPE
% MPE, tail flick test, Average (rats [3]; D2): 22.55 % MPE
% MPE, tail flick test (rats [3]; D2, individual rats): 13.4 % MPE and 32.23 % MPE and 40.51 % MPE and 16.49 % MPE and 13.33 % MPE and 19.35 % MPE
% MPE, tail flick test, Average (rats [3]; D3): 19.97 % MPE
% MPE, tail flick test (rats [3]; D3, individual rats): 14.95 % MPE and 22.51 % MPE and 26.92 % MPE and 13.87 % MPE and 18.46 % MPE and 23.12 % MPE
% MPE, tail flick test, Average (rats [3]; D4): 10.7 % MPE
% MPE, tail flick test (rats [3]; D4, individual rats): 14.43 % MPE and 14.0665 % MPE and 7.949 % MPE and 5.236 % MPE and 12.5641 % MPE and 9.946 % MPE
% MPE, tail flick test, Average (rats [3]; D5): 8.394 % MPE
% MPE, tail flick test (rats [3]; D5, individual rats): 9.536 % MPE and 4.092 % MPE and 7.692 % MPE and 5.236 % MPE and 7.949 % MPE and 15.86 % MPE
% MPE, tail flick test, Average (rats [3]; D6): 5.511 % MPE
% MPE, tail flick test (rats [3]; D6, individual rats): 8.247 % MPE and 0.7673 % MPE and 7.949 % MPE and 8.115 % MPE and 7.179 % MPE and 0.8065 % MPE
% MPE, paw withdrawal test, Average (rats [4]; 2h, L): 26.10 % MPE
% MPE, paw withdrawal test, Average (rats [4]; 2h, R): 27.87 % MPE
% MPE, paw withdrawal test (rats [4]; 2h, left (L) hind paw, individual rats): 24.92 % MPE and 36.09 % MPE and 19.26 % MPE and 23.67 % MPE and 15.95 % MPE and 36.73 % MPE
% MPE, paw withdrawal test (rats [4]; 2h, right (R) hind paw, individual rats): 19.06 % MPE and 39.35 % MPE and 20.77 % MPE and 27 % MPE and 22.43 % MPE and 38.63 % MPE
% MPE, paw withdrawal test, Average (rats [4]; 4h, L): 26.48 % MPE
% MPE, paw withdrawal test (rats [4]; 4h, L, individual rats): 27.69 % MPE and 55.64 % MPE and 11.48 % MPE and 14.67 % MPE and 37.74 % MPE and 11.64 % MPE
% MPE, paw withdrawal test, Average (rats [4]; 4h, R): 29.68 % MPE
% MPE, paw withdrawal test (rats [4]; 4h, R, individual rats): 38.12 % MPE and 58.84 % MPE and 13.08 % MPE and 12 % MPE and 44.11 % MPE and 11.91 % MPE
% MPE, paw withdrawal test, Average (rats [4]; D1, L): 23.61 % MPE
% MPE, paw withdrawal test (rats [4]; D1, L, individual rats): 33.85 % MPE and 35.71 % MPE and 11.11 % MPE and 39 % MPE and 13.62 % MPE and 8.36 % MPE
% MPE, paw withdrawal test, Average (rats [4]; D1, R): 22.68 % MPE
% MPE, paw withdrawal test (rats [4]; D1, R, individual rats): 30.62 % MPE and 43.32 % MPE and 11.54 % MPE and 32 % MPE and 11.03 % MPE and 7.58 % MPE
% MPE, paw withdrawal test, Average (rats [4]; D2, L): 26.91 % MPE
% MPE, paw withdrawal test (rats [4]; D2, L, individual rats): 28.92 % MPE and 42.86 % MPE and 18.15 % MPE and 29 % MPE and 33.07 % MPE and 9.45 % MPE
% MPE, paw withdrawal test, Average (rats [4]; D2, R): 27.13 % MPE
% MPE, paw withdrawal test (rats [4]; D2, R, individual rats): 28.12 % MPE and 44.76 % MPE and 15.77 % MPE and 28.33 % MPE and 34.60 % MPE and 11.19 % MPE
% MPE, paw withdrawal test, Average (rats [4]; D3, L): 15.06 % MPE
% MPE, paw withdrawal test (rats [4]; D3, L, individual rats): 20.37 % MPE and 7.33 % MPE and 9.73 % MPE and 5.09 % MPE and 16.62 % MPE and 31.20 % MPE
% MPE, paw withdrawal test, Average (rats [4]; D3, R): 15.70 % MPE
% MPE, paw withdrawal test (rats [4]; D3, R, individual rats): 17.31 % MPE and 4.67 % MPE and 12.55 % MPE and 0.36 % MPE and 24.69 % MPE and 34.66 % MPE
% MPE, paw withdrawal test, Average (rats [4]; D4, L): 9.72 % MPE
% MPE, paw withdrawal test (rats [4]; D4, L, individual rats): 7.78 % MPE and 13.67 % MPE and 1.55 % MPE and 0 % MPE and 25.54 % MPE and 9.77 % MPE
% MPE, paw withdrawal test, Average (rats [4]; D4, R): 9.56 % MPE
% MPE, paw withdrawal test (rats [4]; D4, R, individual rats): 8.46 % MPE and 15.67 % MPE and 0.76 % MPE and 1.08 % MPE and 20.94 % MPE and 10.47 % MPE
% MPE, paw withdrawal test, Average (rats [4]; D5, L): 6.49 % MPE
% MPE, paw withdrawal test (rats [4]; D5, L, individual rats): 0.74 % MPE and 1 % MPE and 1.94 % MPE and 1.45 % MPE and 18.77 % MPE and 15.04 % MPE
% MPE, paw withdrawal test, Average (rats [4]; D5, R): 6.55 % MPE
% MPE, paw withdrawal test (rats [4]; D5, R, individual rats): 0.38 % MPE and 3 % MPE and 2.66 % MPE and 1.44 % MPE and 18.44 % MPE and 13.36 % MPE
% MPE, paw withdrawal test, Average (rats [4]; D6, L): 4.88 % MPE
% MPE, paw withdrawal test (rats [4]; D6, L, individual rats): 0.37 % MPE and 7 % MPE and 0.39 % MPE and −1.82 % MPE and 10.15 % MPE and 13.16 % MPE
% MPE, paw withdrawal test, Average (rats [4]; D6, R): 7.35 % MPE
% MPE, paw withdrawal test (rats [4]; D6, R, individual rats): 0.77 % MPE and 11 % MPE and 4.94 % MPE and 2.89 % MPE and 9.69 % MPE and 14.80 % MPE
Area under the curve (AUC), paw withdrawal test (left side) (rats [4]; [8]): 165.34 and 63.50 and 98.08 and 77.02 and 29.59 and 139.80
Area under the curve (AUC), paw withdrawal test (right side) (rats [4]; [8]): 179.14 and 59.77 and 93.21 and 84.38 and 29.51 and 143.50
Area under the curve (AUC), paw withdrawal test (left side), Mean (rats [4]; [9]): 95.55 * #
Area under the curve (AUC), paw withdrawal test (right side), Mean (rats [4]; [9]): 98.25 * #
relative rate of drug release [5]: released faster than the other two drugs
release order [5]: almost zero order
duration of anesthesia/analgesia (rats [6]): at least 4 days
release from rods retrieved after termination of in vivo test [7]: suppressed release

— US6913760B2, “Drug delivery composition” (New England Medical Hospitals, Inc., priority 2001, dated 2005)
